Results as given in patent publication US20030004126A1, “Formulations of adenosine A1 agonists” (priority 1999, published 2003).

How the values were obtained:
Male Random Hooded rats = experiment: Carrageenan model: carrageenan-induced decrease in weight bearing (allodynia) and paw oedema; type: in vivo; details: Compound A orally, dosed with morphine subcutaneously; rat, 3 hours after intraplantar 2% carrageenan; dual channel weight averager
Description: (a) Carrageenan Model for 5′-Deoxy-5′-fluoro-N-(tetrahydro-pyran-4-yl)-adenosine (Adenosine A1 Agonist) and Morphine
Male Random Hooded rats (180-220 g) were used. The test compound or vehicle was administered 30 mins before the 2nd test compound or vehicle. The test compounds and vehicles used were: (i) Compound A in 0.25% methyl cellulose and (ii) Morphine was made up in saline. Compound A was administered orally. Morphine was administered subcutaneously. After a further 30 mins 100 ul of 2% carrageenan was injected intraplantar into the left hind paw and the animals were then returned to their cages. Three hours later behavioural testing of the carrageenan-induced decrease in weight on the inflamed left hind paw (% weight on the inflammed left hind paw) and associated oedema was assessed. Weight bearing was measured using the dual channel weight averager and paw oedema was assessed using a plethysmometer. The dual channel weight averager is commercially available and is described in the following abstract: Validation of the dual channel weight averager as an instrument for the measurement of inflammatory pain, N. M. Clayton et al., 1997 British Journal Pharmacol. 120, 219P
Note: In the absense of pain, weight on the hind paws would be evenly distributed, i.e. 50% on each hind paw. […]

rats = experiment: Nociceptive study using an algesymeter (normal nociceptive thresholds); type: in vivo; details: Compound A in combination with morphine, rat
Description: (b) Nociceptive Study for 5′-Deoxy-5′-fluoro-N-(tetrahydro-pyran4-yl)-adenosine (Adenosine A1 Agonist) and morphine
Nociception studies were carried out using an algesymeter (Randal, L et. al ([…]). Arch. Int. Pharmacodyn., 61 409-419. Variations in the rats normal nociceptive thresholds were studied.

O[C@@H]1[C@H](O)[C@@H](CF)O[C@H]1n1cnc2c(NC3CCOCC3)ncnc21 [5′-Deoxy-5′-fluoro-N-(tetrahydro-pyran-4-yl)-adenosine]
effect against the carrageenan-induced decrease in weight bearing (Male Random Hooded rats): at least an additive effect | effect on normal nociceptive levels (nociceptive threshold) (rats): significantly increased the normal nociceptive levels of the rat producing at least an additive if not synergistic effect
